Results published in patent publication US10124004B2, “Pyrido[3,4-d]pyrimidine derivative and pharmaceutically acceptable salt thereof” (Teijin Pharma Limited, priority 2015, dated 2018).

How the values were obtained:
CDK4/cyclin D3 = molecular target: T1, CDK4/cyclin D3 (Homo sapiens, UniProt P11802); assay: Human CDK4/cyclin D3 inhibitory activity (QS S Assist CDK4/Cyclin D3_FP Kit, IMAP fluorescence polarization); format: biochemical; details: Human CDK4/cyclin D3 inhibitory activity; read-out: CDK4 Activity symbol
T1 construct: purchased Carna Biosciences, Inc. QS S Assist CDK4/Cyclin D3_FP Kit
T1 sequence (P11802 whole entry): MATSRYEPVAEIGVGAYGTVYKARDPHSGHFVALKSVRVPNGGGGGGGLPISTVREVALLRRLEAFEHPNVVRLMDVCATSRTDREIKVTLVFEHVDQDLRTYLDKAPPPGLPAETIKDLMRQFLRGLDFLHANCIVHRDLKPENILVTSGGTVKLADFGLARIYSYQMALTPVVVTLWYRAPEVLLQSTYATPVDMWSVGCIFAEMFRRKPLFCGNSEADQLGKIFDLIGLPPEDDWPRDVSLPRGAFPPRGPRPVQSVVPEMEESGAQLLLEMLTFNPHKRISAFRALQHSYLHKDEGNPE
T1 sequence (P30281 whole entry partner): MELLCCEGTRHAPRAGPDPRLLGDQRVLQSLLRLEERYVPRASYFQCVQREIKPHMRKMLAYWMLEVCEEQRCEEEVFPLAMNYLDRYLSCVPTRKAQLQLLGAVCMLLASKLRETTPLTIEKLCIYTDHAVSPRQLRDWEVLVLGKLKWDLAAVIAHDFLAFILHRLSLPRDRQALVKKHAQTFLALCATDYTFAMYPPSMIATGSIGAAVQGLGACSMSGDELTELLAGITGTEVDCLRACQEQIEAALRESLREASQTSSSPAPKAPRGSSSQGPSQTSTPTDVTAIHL
Procedure, shortened: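 Percent inhibition, relative to DMSO with and without enzyme, was curve-fitted to give IC50 from polarization (ex 485, em 535 nm). The 45-min room-temperature reaction used 12.5-25 ng/well enzyme, kit ATP/substrate/metal mix, and HEPES pH 7.4 buffer with Tween20 and DTT, followed by 30-min IMAP binding in the dark.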

CDK2/cyclin A2 = molecular target: T2, CDK2/cyclin A2 (Homo sapiens, UniProt P24941); assay: Human CDK2/cyclin A2 inhibitory activity (QS S Assist CDK2/Cyclin A2_FP Kit, IMAP fluorescence polarization); format: biochemical; details: Human CDK2/cyclin A2 inhibitory activity; read-out: CDK2 Activity symbol
T2 construct: purchased Carna Biosciences, Inc. QS S Assist CDK2/Cyclin A2_FP Kit
Procedure, shortened: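 Kinase activity read as fluorescence polarization (485/535 nm) after phosphorylated fluorescent substrate binds IMAP reagent (30 min, RT, dark). Enzyme (2.5 ng/well) reacted 60 min at RT with ATP/substrate/metal in HEPES pH 7.4 buffer with Tween 20 and DTT; no-enzyme wells define 0% activity; IC50 by curve fit.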

Row | Compound | IC50 (CDK4/cyclin D3) [µM] | IC50 (CDK2/cyclin A2) [µM]
1 | CN(C)CCOc1ccc(Nc2ncc3cc(C(F)F)nc(NC4CCCOC4)c3n2)nc1 (centres unmarked) [Compound 366] | < 0.01 | ≥ 0.1
2 | C[C@@H](O)c1nc(N[C@H]2CC[C@H](O)CC2)c2nc(Nc3ccc(N4CCNCC4)nn3)ncc2c1Cl [Compound 368] | < 0.01 | ≥ 0.1
3 | C[C@@H](O)c1nc(N[C@H]2CCCOC2)c2nc(Nc3ccc(CN4CCNCC4)cn3)ncc2c1Cl [Compound 369] | < 0.01 | ≥ 0.1
4 | C[C@@H](O)c1nc(N[C@H]2CC[C@H](O)CC2)c2nc(Nc3ccc(CN4CCNCC4)cn3)ncc2c1Cl [Compound 370] | < 0.01 | ≥ 0.1
5 | CO[C@H](C)c1cc2cnc(Nc3ccc(N4CCNC[C@H]4C)nn3)nc2c(NC(C)C)n1 [Compound 372] | < 0.01 | ≥ 0.1
6 | COCC(C)(C)Nc1nc([C@@H](C)O)cc2cnc(Nc3cnc(N4CCNCC4)cn3)nc12 [Compound 373] | < 0.01 | ≥ 0.1
7 | CO[C@H](C)c1cc2cnc(Nc3ccc(N4CCNC5(CC5)C4)nn3)nc2c(N[C@H]2CCCOC2)n1 [Compound 376] | < 0.01 | ≥ 0.1
8 | CO[C@H](C)c1cc2cnc(Nc3ccc(CN4CCNC5(CC5)C4)cn3)nc2c(N[C@H]2CCCOC2)n1 [Compound 378] | < 0.01 | ≥ 0.1
9 | CN(C)CCOc1ccc(Nc2ncc3cc(C(F)F)nc(N[C@H]4CCCOC4)c3n2)nc1 [Compound 382] | < 0.01 | ≥ 0.1
10 | O=C(O)[C@H]1CC[C@H](Nc2nc(C(F)F)cc3cnc(Nc4ccc(CN5CCNCC5)cn4)nc23)CC1 [Compound 383] | 0.01 to 0.1 | ≥ 0.1
11 | O[C@H]1CC[C@H](Nc2nc(C(F)F)cc3cnc(Nc4ccc(CN5CCNCC5)cn4)nc23)CC1 [Compound 386] | < 0.01 | ≥ 0.1
12 | CN(C)CCOc1ccc(Nc2ncc3cc(C(F)F)nc(N[C@H]4CC[C@H](O)CC4)c3n2)nc1 [Compound 388] | < 0.01 | ≥ 0.1
13 | CO[C@H](C)c1cc2cnc(Nc3ccc(C(=O)N4CCNCC4)cn3)nc2c(NC(C)C)n1 [Compound 389] | < 0.01 | 0.01 to 0.1
14 | COC(C)c1cc2cnc(Nc3ccc(CN4CCNCC4)cn3)nc2c(NCC2CCCOC2)n1 (centres unmarked) [Compound 400] | < 0.01 | ≥ 0.1
15 | COC(C)c1cc2cnc(Nc3ccc(CN4CCNCC4)cn3)nc2c(NC2CCC(C)(C)OC2)n1 (centres unmarked) [Compound 432] | < 0.01 | ≥ 0.1
16 | CC(C)Nc1nc([C@@H](C)O)cc2cnc(Nc3ccc(OCCN(C)C)nn3)nc12 [Compound 474] | < 0.01 | ≥ 0.1
17 | CNC1CCN(c2ccc(Nc3ncc4cc([C@@H](C)O)nc(NC(C)C)c4n3)nn2)CC1 [Compound 497] | < 0.01 | ≥ 0.1
18 | COC(C)c1cc2cnc(Nc3ccc(N4CC5CCC(C4)N5)cn3)nc2c(NC(C)C)n1 (centres unmarked) [Compound 501] | < 0.01 | ≥ 0.1
19 | CO[C@H](C)c1cc2cnc(Nc3ccc(CN4CCN(CCO)CC4)cn3)nc2c(NC(C)C)n1 [Compound 508] | < 0.01 | ≥ 0.1
20 | CNC1CC2(C1)CN(c1ccc(Nc3ncc4cc([C@@H](C)OC)nc(NC(C)C)c4n3)nc1)C2 [Compound 512] | < 0.01 | ≥ 0.1
21 | CC(C)Nc1nc([C@@H](C)O)cc2cnc(Nc3ccc(N4CCCNCC4=O)cn3)nc12 [Compound 521] | < 0.01 | 0.01 to 0.1
22 | CC(C)Nc1nc([C@@H](C)O)cc2cnc(Nc3ccc(N4CCNCCC4=O)cn3)nc12 [Compound 522] | < 0.01 | 0.01 to 0.1
23 | CNCCOc1ccc(Nc2ncc3cc([C@@H](C)O)nc(NC(C)C)c3n2)nc1 [Compound 529] | < 0.01 | ≥ 0.1
24 | CC(C)Nc1nc([C@@H](C)O)cc2cnc(Nc3ccc(OCCN4CCNCC4=O)cn3)nc12 [Compound 550] | < 0.01 | ≥ 0.1
25 | CO[C@H](C)c1cc2cnc(Nc3ccc(N4C[C@H]5CCN[C@H]5C4=O)cn3)nc2c(NC(C)C)n1 [Compound 556] | < 0.01 | 0.01 to 0.1
26 | CC(C)Nc1nc([C@@H](C)O)cc2cnc(Nc3ccc(N4C[C@H]5CCN[C@H]5C4=O)cn3)nc12 [Compound 558] | < 0.01 | 0.01 to 0.1

The remaining lines, values ahead:

Row | IC50 (CDK4/cyclin D3) [µM] | IC50 (CDK2/cyclin A2) [µM] | Compound
27 | < 0.01 | ≥ 0.1 | C[C@@H](O)c1nc(N[C@H]2CCCOC2)c2nc(Nc3ccc(N4CCNCC4)nn3)ncc2c1Cl [Compound 367]
28 | < 0.01 | ≥ 0.1 | CO[C@H](C)c1cc2cnc(Nc3ccc(N4CCNC[C@@H]4C)nn3)nc2c(NC(C)C)n1 [Compound 371]
29 | < 0.01 | ≥ 0.1 | CC(C)Nc1nc([C@@H](C)O)cc2cnc(Nc3ccc(N4CCNC5(CC5)C4)nn3)nc12 [Compound 379]
30 | < 0.01 | ≥ 0.1 | FC(F)c1cc2cnc(Nc3ccc(CN4CCNCC4)cn3)nc2c(N[C@H]2CCCOC2)n1 [Compound 380]
31 | < 0.01 | ≥ 0.1 | FC(F)c1cc2cnc(Nc3ccc(N4CCNCC4)nn3)nc2c(N[C@H]2CCCOC2)n1 [Compound 381]
32 | 0.01 to 0.1 | ≥ 0.1 | O=C(O)[C@H]1CC[C@H](Nc2nc(C(F)F)cc3cnc(Nc4ccc(N5CCNCC5)nn4)nc23)CC1 [Compound 384]
33 | < 0.01 | ≥ 0.1 | CN(C)CCOc1ccc(Nc2ncc3cc(C(F)F)nc(N[C@H]4CC[C@H](C(=O)O)CC4)c3n2)nc1 [Compound 385]
34 | < 0.01 | 0.01 to 0.1 | O[C@H]1CC[C@H](Nc2nc(C(F)F)cc3cnc(Nc4ccc(N5CCNCC5)nn4)nc23)CC1 [Compound 387]
35 | < 0.01 | ≥ 0.1 | COC1CCC(Nc2nc(C(C)OC)cc3cnc(Nc4ccc(CN5CCNCC5)cn4)nc23)CC1 (centres unmarked) [Compound 395]
36 | < 0.01 | ≥ 0.1 | COC(C)c1cc2cnc(Nc3ccc(CN4CCNCC4)cn3)nc2c(SC(C)C)n1 (centres unmarked) [Compound 456]
37 | < 0.01 | ≥ 0.1 | CO[C@H](C)c1cc2cnc(Nc3ccc(N4CCN[C@@H](C)C4=O)cn3)nc2c(NC(C)C)n1 [Compound 463]
38 | < 0.01 | ≥ 0.1 | CO[C@H](C)c1cc2cnc(Nc3ccc(N4CC[C@@H](N)[C@@H](F)C4)cn3)nc2c(NC(C)C)n1 [Compound 466]
39 | < 0.01 | ≥ 0.1 | CO[C@H](C)c1cc2cnc(Nc3ccc(N4CC[C@H](N)[C@@H](F)C4)cn3)nc2c(NC(C)C)n1 [Compound 467]
40 | < 0.01 | ≥ 0.1 | CC(C)Nc1nc([C@@H](C)O)cc2cnc(Nc3ccc(N4CCC(N(C)C)CC4)nn3)nc12 [Compound 491]
41 | < 0.01 | 0.01 to 0.1 | CO[C@H](C)c1cc2cnc(Nc3ccc(N4CCCNCC4=O)cn3)nc2c(NC(C)C)n1 [Compound 492]
42 | < 0.01 | 0.01 to 0.1 | CO[C@H](C)c1cc2cnc(Nc3ccc(N4CCNCCC4=O)cn3)nc2c(NC(C)C)n1 [Compound 499]

Row | IC50 (CDK4/cyclin D3) [µM] | IC50 (CDK2/cyclin A2) [µM] | Compound
43 | < 0.01 | ≥ 0.1 | CC(C)Nc1nc([C@@H](C)O)cc2cnc(Nc3ccc(N4CCN[C@@H](C)C4=O)cn3)nc12 [Compound 507]
44 | < 0.01 | ≥ 0.1 | CNCC(F)COc1ccc(Nc2ncc3cc([C@@H](C)OC)nc(NC(C)C)c3n2)nc1 (some centres unmarked) [Compound 509]
45 | < 0.01 | ≥ 0.1 | CC(C)Nc1nc([C@@H](C)O)cc2cnc(Nc3ccc(N4CCN(CCO)CC4)nn3)nc12 [Compound 510]
46 | < 0.01 | 0.01 to 0.1 | CO[C@H](C)c1cc2cnc(Nc3ccc(N4CC5(CNC5)CC4=O)cn3)nc2c(NC(C)C)n1 [Compound 511]
47 | < 0.01 | ≥ 0.1 | CC(C)Nc1nc([C@@H](C)O)cc2cnc(Nc3ccc(CC(=O)N4CCNCC4)cn3)nc12 [Compound 519]
48 | < 0.01 | ≥ 0.1 | CC(C)Nc1nc([C@@H](C)O)cc2cnc(Nc3ccc(N4CC5(CC(O)C5)C4)nn3)nc12 [Compound 524]
49 | < 0.01 | ≥ 0.1 | CNCCCOc1ccc(Nc2ncc3cc([C@@H](C)OC)nc(NC(C)C)c3n2)nc1 [Compound 526]
50 | < 0.01 | ≥ 0.1 | CC(C)Nc1nc([C@@H](C)O)cc2cnc(Nc3ccc(N4CCN(C)CC4)nn3)nc12 [Compound 532]
51 | < 0.01 | ≥ 0.1 | CC(C)Nc1nc([C@@H](C)O)cc2cnc(Nc3ccc(CN4CCNC5(CC5)C4)cn3)nc12 [Compound 537]
52 | < 0.01 | ≥ 0.1 | CC(C)Nc1nc([C@@H](C)O)cc2cnc(Nc3ccc(CN4CCN(C)CC4)cn3)nc12 [Compound 548]
53 | < 0.01 | ≥ 0.1 | CC(C)Nc1nc([C@@H](C)O)cc2cnc(Nc3ccc(CN4CCC(C(C)(C)O)CC4)cn3)nc12 [Compound 549]
54 | < 0.01 | ≥ 0.1 | CO[C@H](C)c1cc2cnc(Nc3ccc(N4CCCCC(N)C4=O)cn3)nc2c(NC(C)C)n1 (some centres unmarked) [Compound 553]
55 | < 0.01 | ≥ 0.1 | CC(C)Nc1nc([C@@H](C)O)cc2cnc(Nc3ccc(N4CCCCC(N)C4=O)cn3)nc12 (some centres unmarked) [Compound 554]
56 | < 0.01 | ≥ 0.1 | CC(C)Nc1nc([C@@H](C)O)cc2cnc(Nc3ccc(CN4CCN(CCO)CC4)cn3)nc12 [Compound 555]
57 | < 0.01 | ≥ 0.1 | CO[C@H](C)c1cc2cnc(Nc3ccc(OCC(=O)N4CCNCC4)cn3)nc2c(NC(C)C)n1 [Compound 557]
58 | < 0.01 | ≥ 0.1 | CC(C)Nc1nc([C@@H](C)O)cc2cnc(Nc3ccc(OCC(=O)N4CCNCC4)cn3)nc12 [Compound 559]
